Measured values taken from patent US8426408B2, “Pyrimidine inhibitors of kinases” (AbbVie Inc., priority 2009, dated 2013).

Assays:
KDR = KDR (Homo sapiens, UniProt P35968); experiment: KDR cellular assay (KDR receptor phosphorylation ELISA); assay type: cell-based; set-up: expressed in transfected cells; host or cells: 3T3 (embryonic mouse) cells; details: KDR transfected 3T3 (embryonic mouse) cells, VEGF stimulated; read-out: IC50 inhibition of KDR phosphorylation
Procedure, shortened: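 Phospho-KDR measured by capture ELISA (anti-KDR coat, biotinylated detection, streptavidin-HRP, 450 nm) in lysates of KDR-expressing 3T3 mouse fibroblasts. Cells saw compound 20 min at 37° C before 10 min VEGF challenge (100 ng/ml solution); IC50 from non-linear regression of half-log dose series.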

Aurora A = target: T1, Aurora A (Homo sapiens, UniProt O14965); experiment: Aurora A enzyme inhibition (time-resolved fluorescence, STK substrate-2); assay type: biochemical; details: 1 mM ATP
T1 sequence (O14965 1-403): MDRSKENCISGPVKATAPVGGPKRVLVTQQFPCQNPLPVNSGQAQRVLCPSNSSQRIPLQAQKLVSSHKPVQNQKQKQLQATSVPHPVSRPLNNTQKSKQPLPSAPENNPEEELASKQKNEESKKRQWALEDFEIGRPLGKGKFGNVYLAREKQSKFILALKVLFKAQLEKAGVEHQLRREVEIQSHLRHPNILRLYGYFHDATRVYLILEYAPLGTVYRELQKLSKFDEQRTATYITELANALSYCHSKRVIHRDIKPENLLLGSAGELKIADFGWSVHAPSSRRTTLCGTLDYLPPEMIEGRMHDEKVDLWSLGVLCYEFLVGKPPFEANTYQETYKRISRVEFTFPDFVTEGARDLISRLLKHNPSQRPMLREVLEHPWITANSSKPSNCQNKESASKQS
Procedure, shortened: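 Phosphorylation of biotinylated STK substrate-2 at 1 mM ATP, 1 h, Hepes buffer pH 7.4 (MgCl2, sodium orthovanadate, Triton X-100). After EDTA quench, 665/615 nm time-resolved fluorescence ratio read via europium anti-phospho antibody and SA-XL665; IC50 from exponential fit versus inhibitor concentration.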

Chain of KDR (P35968 20-1356): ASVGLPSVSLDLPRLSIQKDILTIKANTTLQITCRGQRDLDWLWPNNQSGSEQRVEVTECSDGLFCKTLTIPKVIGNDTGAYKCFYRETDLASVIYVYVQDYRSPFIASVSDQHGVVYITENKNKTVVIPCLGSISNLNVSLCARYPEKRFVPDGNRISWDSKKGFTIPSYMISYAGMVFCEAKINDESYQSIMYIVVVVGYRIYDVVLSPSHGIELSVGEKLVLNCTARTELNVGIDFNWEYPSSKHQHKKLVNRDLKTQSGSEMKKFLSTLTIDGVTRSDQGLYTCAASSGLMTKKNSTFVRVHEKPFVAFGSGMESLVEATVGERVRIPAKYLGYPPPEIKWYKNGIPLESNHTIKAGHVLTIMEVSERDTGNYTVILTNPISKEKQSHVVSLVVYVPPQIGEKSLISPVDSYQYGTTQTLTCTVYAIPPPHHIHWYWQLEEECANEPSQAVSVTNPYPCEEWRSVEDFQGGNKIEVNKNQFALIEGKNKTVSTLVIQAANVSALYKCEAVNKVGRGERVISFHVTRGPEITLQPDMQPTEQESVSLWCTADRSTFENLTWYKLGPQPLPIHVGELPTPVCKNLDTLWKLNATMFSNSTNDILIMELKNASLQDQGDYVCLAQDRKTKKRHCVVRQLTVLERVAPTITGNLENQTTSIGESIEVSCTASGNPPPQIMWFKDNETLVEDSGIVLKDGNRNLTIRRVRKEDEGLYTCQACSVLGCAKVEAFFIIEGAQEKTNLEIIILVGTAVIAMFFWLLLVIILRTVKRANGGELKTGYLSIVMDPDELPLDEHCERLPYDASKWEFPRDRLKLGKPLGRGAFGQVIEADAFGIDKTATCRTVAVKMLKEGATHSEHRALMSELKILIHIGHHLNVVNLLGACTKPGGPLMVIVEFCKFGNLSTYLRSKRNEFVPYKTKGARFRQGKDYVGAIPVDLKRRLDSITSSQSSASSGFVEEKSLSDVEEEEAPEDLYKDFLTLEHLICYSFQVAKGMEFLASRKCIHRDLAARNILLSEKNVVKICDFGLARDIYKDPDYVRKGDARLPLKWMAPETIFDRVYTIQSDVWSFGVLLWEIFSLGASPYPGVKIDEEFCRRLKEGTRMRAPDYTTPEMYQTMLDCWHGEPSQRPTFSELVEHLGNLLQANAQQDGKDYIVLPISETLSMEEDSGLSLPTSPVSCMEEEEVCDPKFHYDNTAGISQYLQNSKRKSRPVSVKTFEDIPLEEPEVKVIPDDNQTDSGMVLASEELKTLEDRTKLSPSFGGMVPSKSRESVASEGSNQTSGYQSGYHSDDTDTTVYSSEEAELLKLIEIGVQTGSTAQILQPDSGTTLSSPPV

Compound | IC50 (KDR) [µM] | Ki (Aurora A) [µM]
CN1CCN(CCn2cc(Nc3ncc(Br)c(N[C@H]4[C@@H](C(N)=O)[C@@H]5C=C[C@H]4C5)n3)cn2)CC1 [Example 94, (1S,2S,3R,4R)-3-{[5-bromo-2-({1-[2-(4-methylpiperazin-1-yl)ethyl]-1H-pyrazol-4-yl}amino)pyrimidin-4-yl]amino}bicyclo[2.2.1]hept-5-ene-2-carboxamide] | < 0.1 | < 0.1
COCCn1cc(Nc2ncc(Cl)c(N[C@H]3[C@@H](C(N)=O)[C@@H]4C=C[C@H]3C4)n2)cn1 [Example 96, (1S,2S,3R,4R)-3-[(5-chloro-2-{[1-(2-methoxyethyl)-1H-pyrazol-4-yl]amino}pyrimidin-4-yl)amino]bicyclo[2.2.1]hept-5-ene-2-carboxamide] | < 0.1 | < 0.1
NC(=O)[C@@H]1[C@H](Nc2nc(Nc3cnn(C4CCNCC4)c3)ncc2Br)[C@H]2C=C[C@@H]1C2 [Example 95, (1S,2S,3R,4R)-3-[(5-bromo-2-{[1-(piperidin-4-yl)-1H-pyrazol-4-yl]amino}pyrimidin-4-yl)amino]bicyclo[2.2.1]hept-5-ene-2-carboxamide] | < 0.1 | < 0.1
